According to patent publication US10994016B2, “Graphene oxide mediated cellular delivery of gadolinium-labeled molecules” (Northwestern University, priority 2015, dated 2021):
Values joined by “and” are separate entries in the source; they are usually repeats but may differ in a detail not shown here. Equal entries are not always repeated.

How the values were obtained:
[1] = Octanol-water partition coefficients; assay type: physicochemical; settings: errors show SEM; Gd in each layer by ICP-MS
Experimental: Approximately 1 mg of each compound was dissolved in 1 mL of a 1:1 mixture of water/1-octanol. After shaking the sample tube vigorously for 30 s, the tube was placed on a rotator for gentle mixing over 6 h. The tube was then removed from the rotator and allowed to sit for 12 h to ensure complete separation of the aqueous and organic phases. […] Once separation was complete, 10 μL was removed from each layer to determine the concentration of Gd by ICP-MS. The partition coefficient was calculated from the following equation: log10P=log10(Co/Cw), where log10 P is the logarithm of the partition coefficient, Co is the concentration of Gd in the 1-octanol layer, and Cw is the concentration of Gd in the water layer.

HeLa cells = experiment: Cellular delivery studies with and without GO co-incubation, HeLa; assay type: cell-based; settings: for Gd content (fmol/cell): 24 h, replicate values; for Gd content (fmol/cell), Outliers: values removed as outliers (Chauvenet's criterion, * experimenter judgment)
Experimental: ICP-MS Samples were prepared in 15-mL conical tubes by adding ACS reagent grade nitric acid (70%), followed by incubation at 70° C. overnight to allow for complete sample digestion. The effectiveness of this digestion protocol was previously validated for GO. After incubation, a multi-element internal standard (containing Bi, Ho, In, Li, Sc, Tb, and Y, Inorganic Ventures, Christiansburg, Va.) and milli-Q water (18.2 MΩ·cm) were added to produce a final sample of 3% (v/v) nitric acid and 5 ng/mL internal standard.
ICP-MS was performed on a computer-controlled (Plasmalab software) Thermo X series II ICP-MS (Thermo Fisher Scientific, Waltham, Mass., USA) operating in standard mode equipped with an ESI SC-2 autosampler (Omaha, Nebr., USA). Each sample was acquired using 1 survey run (10 sweeps) and 3 main (peak jumping) runs (100 sweeps). The isotopes selected for analysis were Gd with In and Ho isotopes selected as internal standards for data interpolation. Instrument performance is optimized daily through an autotune followed by verification via a performance report (passing manufacturer specifications). Instrument calibration was accomplished by preparing individual-element Gd standards (Inorganic Ventures, Christiansburg, Va., USA) using concentrations of 0.78125, 1.5625, 3.125, 6.25, 12.50, 25.00, 50.00, 100.0, and 200.0 ng/mL containing 3.0% nitric acid (v/v) and 5.0 ng/mL of multi-element internal standard.
Dulbecco's modified phosphate buffered saline (DPBS), media, and dissociation reagents were purchased from Life Technologies (Carlsbad, Calif.). CorningBrand® cell culture consumables (flasks, plates, etc.) and sera were purchased from VWR Scientific (Radnor, Pa.). HeLa cells (ATCC® CCL-2™) and KB cells (ATCC® CCL-17™) were purchased from the American Type Culture Collection (ATCC, Manassas, Va.) and cultured in phenol red-free minimum essential media (MEM) supplemented with 10% fetal bovine serum (FBS). Prior to all experiments, cells were plated and allowed to incubate for 24 hours before dosing. Cells were harvested with 0.25% TrypLE for 5 minutes at 37° C. in a 5.0% CO2 incubator. For sterilization, all Gd(III)-labeled molecules were filtered with 0.2 μm sterile filters prior to concentration determination and storage at 4° C. GO was used as prepared without further sterilization. […] Cells were grown in a humidified incubator operating at 37° C. and 5.0% CO2.
Cell counting was conducted using a Guava EasyCyte Mini Personal Cell Analyzer (EMD Millipore, Billerica, Mass.). After cell harvesting, an aliquot (50 μL) of the cell suspensions was mixed with Guava ViaCount reagent (150 μL) and allowed to stain at room temperature for at least 5 minutes. The dilution factor of 4 was determined based upon optimum machine performance (20-150 cells/μL). After vortexing for 10 sec, stained cells were counted using a Guava EasyCyte Mini Personal Cell Analyzer (PCA) using the ViaCount software module. For each sample, 1000 events were acquired. Gating of live/dead and cell/debris classifications were performed manually by the operator.
Cellular delivery studies were performed with HeLa and KB cells. HeLa and KB were plated at a cell density of approximately 25,000 and 50,000 cells per well, respectively, in a 24-well plate as counted by a hemocytometer. Stock solutions of 1-14 (1 mM), 150 nm GO (100 μg/mL), and 1500 nm GO (100 μg/mL) were prepared using sterile Milli-Q water. Prior to dosing, 80 μL ([…]) of each GO (150 nm and 1500 nm) and 80 μL (80 nmol) of each Gd(III)-labeled molecule (1-14) were mixed and allowed to adsorb for at least 15 minutes. 150 μL Gd(III)-GO solutions were added to 250 μL media to give a final concentration of 188 μM Gd and 18.8 μg/mL GO. Cells were incubated with the mixture of Gd(III)-labeled molecules and GO for […]. To harvest, cells were rinsed in-plate three times with 500 μL PBS and trypsinized using 100 μL 0.25% TrypLE. […]

[2] = +150 nm GO co-incubation, 188 μM Gd(III), 18.8 μg/mL GO
[3] = +1500 nm GO co-incubation, 188 μM Gd(III), 18.8 μg/mL GO
[4] = molecule alone, without GO, 188 μM Gd(III), 24-well plate

SMILES	Water-Octanol LogP [1]	Gd content (fmol/cell) (HeLa cells; [2])	Gd content (fmol/cell) (HeLa cells; [3])	Gd content (fmol/cell) (HeLa cells; [4])	Gd content (fmol/cell), Outliers (HeLa cells; +150 nm GO)	Gd content (fmol/cell), Outliers (HeLa cells; +1500 nm GO)	Gd content (fmol/cell), Outliers (HeLa cells; molecule alone, without GO)	Delivery enhancement without adsorption time (HeLa cells; 1500 nm GO, 188 μM Gd(III), 18.8 μg/mL GO)
O=C([O-])CN(CCN(CC(=O)[O-])CC(=O)[O-])CCN(CC(=O)[O-])CC(=O)[O-].[Gd+3] [Molecule 11]	−3.80 ± 0.29	2.36 fmol/cell and 2.49 fmol/cell and 4.37 fmol/cell and 4.24 fmol/cell and 5.87 fmol/cell and 2.95 fmol/cell and 2.73 fmol/cell and 2.85 fmol/cell	5.16 fmol/cell and 5.75 fmol/cell and 4.01 fmol/cell and 3.75 fmol/cell and 3.78 fmol/cell and 3.36 fmol/cell	0.34 fmol/cell and 0.30 fmol/cell and 0.54 fmol/cell and 0.82 fmol/cell and 0.51 fmol/cell and 0.72 fmol/cell and 0.61 fmol/cell (2×)				
C[N+](C)(C)CCCc1cn(CC(O)CN2CCN(CC(=O)[O-])CCN(CC(=O)[O-])CCN(CC(=O)[O-])CC2)nn1.[Gd+3] (stereo not shown) [Molecule 5]	−4.33 ± 0.46	0.37 fmol/cell and 0.29 fmol/cell and 0.42 fmol/cell and 0.43 fmol/cell	0.42 fmol/cell and 0.36 fmol/cell and 0.32 fmol/cell	0.52 fmol/cell and 0.29 fmol/cell and 0.25 fmol/cell and 0.35 fmol/cell and 0.37 fmol/cell	2.73 fmol/cell			
O=C([O-])CN1CCN(CC(=O)[O-])CCN(CC(O)Cn2cc(CCCC(=O)O)nn2)CCN(CC(=O)[O-])CC1.[Gd+3] (stereo not shown) [Molecule 4]	−3.44 ± 0.28	0.31 fmol/cell and 0.23 fmol/cell (2×) and 0.33 fmol/cell and 0.25 fmol/cell and 0.13 fmol/cell and 0.16 fmol/cell and 0.17 fmol/cell and 0.20 fmol/cell and 0.29 fmol/cell and 0.22 fmol/cell	0.58 fmol/cell and 0.27 fmol/cell and 0.33 fmol/cell and 0.30 fmol/cell and 0.31 fmol/cell and 0.53 fmol/cell	0.51 fmol/cell and 0.26 fmol/cell and 0.25 fmol/cell and 0.23 fmol/cell and 0.34 fmol/cell and 0.36 fmol/cell	0.66 fmol/cell and 0.76 fmol/cell and 0.62 fmol/cell	1.00 fmol/cell	0.76 fmol/cell	
O=C([O-])CN1CCN(CC(=O)[O-])CCN(CC(O)Cn2cc(CCCO)nn2)CCN(CC(=O)[O-])CC1.[Gd+3] (stereo not shown) [Molecule 2]	−3.98 ± 0.06	0.84 fmol/cell and 0.81 fmol/cell and 0.90 fmol/cell	0.59 fmol/cell and 0.88 fmol/cell and 0.70 fmol/cell	0.30 fmol/cell and 0.38 fmol/cell and 0.36 fmol/cell				
O=C([O-])CN1CCNCCN(CC(=O)[O-])CCN(CC(=O)[O-])CC1.[Gd+3] [Molecule 7]	−3.71 ± 0.02	0.53 fmol/cell and 0.39 fmol/cell (2×) and 0.42 fmol/cell and 0.44 fmol/cell (2×) and 1.09 fmol/cell and 0.73 fmol/cell	0.63 fmol/cell and 0.55 fmol/cell and 0.68 fmol/cell and 0.50 fmol/cell and 1.05 fmol/cell and 1.36 fmol/cell	0.47 fmol/cell and 0.39 fmol/cell and 0.51 fmol/cell and 0.46 fmol/cell and 0.75 fmol/cell and 0.83 fmol/cell		6.54 fmol/cell and 4.00 fmol/cell	4.93* fmol/cell and 4.31* fmol/cell	
O=C([O-])CN1CCN(CC(=O)[O-])CCN(CC(=O)[O-])CCN(CC(=O)[O-])CC1.[Gd+3] [Molecule 14]	−3.62 ± 0.23	0.35 fmol/cell and 0.26 fmol/cell and 0.21 fmol/cell	0.34 fmol/cell and 0.21 fmol/cell and 0.18 fmol/cell and 0.31 fmol/cell	0.22 fmol/cell and 0.31 fmol/cell and 0.20 fmol/cell		4.32 fmol/cell		
NCCCCCCN1CCN(CC(=O)[O-])CCN(CC(=O)[O-])CCN(CC(=O)[O-])CC1.[Gd+3] [Molecule 9]	−3.98 ± 0.07	28.63 fmol/cell and 32.09 fmol/cell and 29.78 fmol/cell	11.67 fmol/cell and 20.36 fmol/cell and 14.83 fmol/cell	6.86 fmol/cell and 7.54 fmol/cell and 4.78 fmol/cell and 7.33 fmol/cell and 8.77 fmol/cell and 6.65 fmol/cell and 7.40 fmol/cell			13.02* fmol/cell and 14.46* fmol/cell and 18.05 fmol/cell and 24.04 fmol/cell	same result
